According to paper PMC4597782 (Nature, 2015):

What was measured:
mGluR2 [1] = molecular target: T1, mGluR2 (Rattus norvegicus, UniProt P31421); format: biochemical
mGluR3 [2] = molecular target: T2, mGluR3 (Rattus norvegicus, UniProt P31422); format: cell-based; conditions: read-out: EC50 of glutamate-dependent decrease in ensemble FRET; HEK293T cells
mGluR3 [3] = molecular target: T2, mGluR3; format: biochemical; conditions: for average active state lifetime: 2 mM Ca2+ or 100 nM glutamate
[4] = molecular target: mGluR2 WT/YADA heterodimer (Rattus norvegicus, UniProt P31421, D295A/Y216A); test: smFRET of mGluR2 WT/YADA heterodimers; format: biochemical; conditions: near-saturating glutamate for the WT subunit
[5] = molecular target: mGluR2-YADA (Y216A and D295A) (Rattus norvegicus, UniProt P31421, D295A/Y216A); test: smFRET of glutamate-insensitive mutant mGluR2-YADA; format: biochemical; conditions: 50 μM or 1 mM glutamate
mGluR2 [6] = molecular target: T1, mGluR2; format: cell-based; conditions: normalized to response to 1 mM glutamate

T1 sequence (P31421 19-872): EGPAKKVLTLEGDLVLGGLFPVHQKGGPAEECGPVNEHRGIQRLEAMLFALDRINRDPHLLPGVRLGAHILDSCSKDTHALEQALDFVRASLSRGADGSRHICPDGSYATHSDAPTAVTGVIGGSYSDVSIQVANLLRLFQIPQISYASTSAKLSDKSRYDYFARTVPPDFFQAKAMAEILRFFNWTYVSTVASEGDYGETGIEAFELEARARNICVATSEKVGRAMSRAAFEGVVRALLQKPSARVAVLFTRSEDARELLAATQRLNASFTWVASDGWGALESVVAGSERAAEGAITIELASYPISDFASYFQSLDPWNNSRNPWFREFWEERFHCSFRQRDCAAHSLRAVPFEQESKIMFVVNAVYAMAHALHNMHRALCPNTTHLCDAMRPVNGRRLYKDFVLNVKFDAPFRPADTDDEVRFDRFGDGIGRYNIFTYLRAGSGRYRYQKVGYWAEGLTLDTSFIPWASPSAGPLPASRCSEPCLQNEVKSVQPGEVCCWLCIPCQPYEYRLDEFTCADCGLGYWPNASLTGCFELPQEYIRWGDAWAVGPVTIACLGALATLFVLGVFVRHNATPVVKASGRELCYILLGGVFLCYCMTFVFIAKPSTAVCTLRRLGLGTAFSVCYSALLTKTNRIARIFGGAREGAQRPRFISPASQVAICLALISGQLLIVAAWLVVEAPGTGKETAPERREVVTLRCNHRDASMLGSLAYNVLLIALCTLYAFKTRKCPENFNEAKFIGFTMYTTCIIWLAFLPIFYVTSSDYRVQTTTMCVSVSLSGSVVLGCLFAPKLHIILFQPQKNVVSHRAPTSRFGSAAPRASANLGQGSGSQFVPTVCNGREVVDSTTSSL
T1 sequence (P31421 19-872): as above
T2 sequence (P31422 23-879): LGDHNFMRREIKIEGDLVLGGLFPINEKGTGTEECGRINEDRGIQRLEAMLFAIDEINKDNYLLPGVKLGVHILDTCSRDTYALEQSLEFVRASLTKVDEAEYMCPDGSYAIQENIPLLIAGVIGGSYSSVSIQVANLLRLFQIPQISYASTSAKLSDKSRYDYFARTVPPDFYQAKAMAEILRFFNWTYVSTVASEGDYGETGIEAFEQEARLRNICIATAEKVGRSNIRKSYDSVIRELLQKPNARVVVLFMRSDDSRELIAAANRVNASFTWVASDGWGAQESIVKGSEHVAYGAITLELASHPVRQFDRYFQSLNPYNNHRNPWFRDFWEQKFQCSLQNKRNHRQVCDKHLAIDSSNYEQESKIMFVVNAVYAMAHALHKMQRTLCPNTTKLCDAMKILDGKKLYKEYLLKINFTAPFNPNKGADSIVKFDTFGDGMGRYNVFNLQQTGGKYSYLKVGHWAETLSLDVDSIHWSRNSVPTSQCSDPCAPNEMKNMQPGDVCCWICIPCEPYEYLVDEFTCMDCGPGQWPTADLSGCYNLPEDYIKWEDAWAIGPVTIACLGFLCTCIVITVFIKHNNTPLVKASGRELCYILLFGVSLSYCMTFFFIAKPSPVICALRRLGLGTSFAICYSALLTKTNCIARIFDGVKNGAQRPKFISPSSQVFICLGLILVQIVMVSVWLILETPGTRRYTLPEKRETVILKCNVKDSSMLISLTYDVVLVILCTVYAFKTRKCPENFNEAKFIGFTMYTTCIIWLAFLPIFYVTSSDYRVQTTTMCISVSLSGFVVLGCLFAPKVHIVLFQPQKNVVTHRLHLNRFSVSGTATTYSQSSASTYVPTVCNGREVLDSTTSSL
T2 sequence (P31422 23-879): as above
mGluR2 WT/YADA heterodimer, sequence (P31421 19-872, stated change not applied): as the sequence (P31421 19-872) above
mGluR2 WT/YADA heterodimer, sequence (P31421 19-872 Y216A/D295A): as the sequence (P31421 19-872) above, with Y198A, D277A counted along it
mGluR2-YADA (Y216A and D295A), sequence (P31421 19-872 Y216A/D295A): as the sequence (P31421 19-872) above, with Y198A, D277A counted along it
mGluR2-YADA (Y216A and D295A), sequence (P31421 19-872 Y216A/D295A): as the sequence (P31421 19-872) above, with Y198A, D277A counted along it

N[C@@H](CCC(=O)O)C(=O)O [glutamate]
maximal medium FRET occupancy (mGluR2 [1]; WT/WT homodimer): ~ 25%
EC50 (mGluR3 [2]): 500 ± 200 nM
average active state lifetime (mGluR3 [3]): 183 ms
occupancy of the medium FRET state [4]: ~ 55%
effect on the FRET histogram [5]: no effect

COc1ccccc1Oc1ccc(N(Cc2cccnc2)S(=O)(=O)CC(F)(F)F)cc1 [LY48739, LY487379]
effect on relative occupancy of the low FRET state (mGluR2 [1]; in the presence of DCG-IV (1 μM)): increased the relative occupancy of the low FRET state
effect on DCG-IV response in ensemble FRET (mGluR2 [6]): increases the apparent affinity and efficacy of DCG-IV

N[C@H](C(=O)O)C1[C@@H](C(=O)O)[C@@H]1C(=O)O (some centres unmarked) [DCG-IV]
share of distribution remaining in the high and medium FRET states (mGluR2 [1]; saturating concentrations (≥100 μM)): ~ 30%

[Ca+2] [Ca^2+]
effect on low FRET state occupancy (mGluR3 [3]; 0 glutamate): concentration-dependent increase in low FRET state occupancy
average active state lifetime (mGluR3 [3]): 183 ms

N[C@@]1(C(=O)O)CO[C@H]2[C@H](C(=O)O)[C@H]21 [LY379268]
occupancy of the active (low FRET) state (mGluR2 [1]; saturating agonist, compared with glutamate): more complete occupancy of the active state than glutamate
